From article PMC12562379, “Facile Synthesis of N-vinylindoles via Knoevenagel Condensation: Molecular Features and Biological Activities” (International Journal of Molecular Sciences, 2025)
Values after ≈ are worked out from the molar mass of the structure shown.

What was measured:
SKOV-3 cells = test: Caspase-3/7 assay (apoptosis, Muse Cell Analyzer); assay type: cell-based, human; conditions: SKOV-3, 24 h
Experimental: The SKOV-3 cells (5 × 10^5 cells/well) were seeded and incubated with compound 2i at concentrations of 2, 5, 10, 15, 30, and 60 µg/mL for 24 h. Then, the cells were stained with Muse Caspase-3/7 Kit, according to the manufacturer’s instructions. Muse Cell Analyzer and Muse 1.4 Analysis Software (Merck Millipore, Burlington, MA, USA) were used to calculate the amount of live, early apoptotic, late apoptotic, and dead cells. The results are shown as a percentage of the cells in each population obtained from two independently repeated experiments (in three repeats).

[1] = system: HeLa, SKOV-3, AGS (and HaCaT) cell lines; test: MTT assay, ranges stated over several cell lines; assay type: cell-based, human; conditions: for IC50: Homo sapiens
Experimental: The human ovarian SKOV-3, gastric adenocarcinoma AGS, cervical HeLa cell lines and non-cancerous keratinocytes HaCaT were obtained from the American Type Culture Collection (ATCC, Manassas, VA, USA). The cell lines were cultured in McCoy’s Medium, Dulbecco’s Modified Eagle’s Medium/F12, and DMEM, respectively (Merck Millipore, Burlington, MA, USA). Penicillin (100 units/mL), streptomycin ([…]), and 10% (v/v) fetal bovine serum (FBS) were added to all the media. The cells were incubated at 37 °C and 5% CO2.
To estimate the cytotoxic activity of the obtained compounds 2a-i, MTT assay was used. The cells (5 × 10^3 cells/well) were treated with the compounds in a range of concentrations 1–150 µg/mL. […] After 24 h, MTT solution (0.5 mg/mL) was added to the cells. Formazan crystals were dissolved in DMSO and the absorbance was measured with a microtiter plate reader (Epoch, BioTek Instruments, Winooski, VT, USA).

[2] = range over the cancer cell lines HeLa, SKOV-3 and AGS

SMILES: C(=C(\C1=NCCN1)n1ccc2ccccc21)/c1ccc2ccccc2c1 [Compound 2i, (Z)-1-[1-(4,5-dihydro-1H-imidazol-2-yl)-2-(naphthalen-2-yl)vinyl]-1H-indole]
- dead cells (SKOV-3 cells; 2 µg/mL): 6.07 ± 0.58%
- late apoptotic cells (SKOV-3 cells; 2 µg/mL): 11.52 ± 1.53%
- dead cells (SKOV-3 cells; 5 µg/mL): 7.65 ± 0.61%
- late apoptotic cells (SKOV-3 cells; 5 µg/mL): 22.72 ± 1.37%
- dead cells (SKOV-3 cells; 10 µg/mL): 18.11 ± 1.45%
- late apoptotic cells (SKOV-3 cells; 10 µg/mL): 48.85 ± 0.39%
- dead cells (SKOV-3 cells; 15 µg/mL): 31.52 ± 2.68%
- late apoptotic cells (SKOV-3 cells; 15 µg/mL): 54.94 ± 3.12%
- dead cells (SKOV-3 cells; 30 µg/mL): 68.95 ± 2.09%
- late apoptotic cells (SKOV-3 cells; 30 µg/mL): 28.21 ± 1.61%
- dead cells (SKOV-3 cells; 60 µg/mL): 66.85 ± 1.96%
- late apoptotic cells (SKOV-3 cells; 60 µg/mL): 31.87 ± 2.01%
- induction of apoptosis (SKOV-3 cells; from 2 µg/mL to 60 µg/mL): significantly induced apoptosis
- IC50 ([1]; range over HeLa and SKOV-3 cell lines): 2.03 to 2.45 mg/L (≈ 6.02 to 7.26 µM)
- IC50 [1, 2]: 2.03 to 5.68 mg/L (≈ 6.02 to 16.8 µM)
- IC50 (range over cell lines) [1, 2]: 2.03 to 5.58 mg/L
